# Source: article PMC11305242 (Heliyon, 2024)
# What was measured:
# [1] = tested on: alpha-glucosidase; assay: Kinetics of alpha-glucosidase inhibition; format: biochemical, Saccharomyces cerevisiae; settings: for mode of alpha-glucosidase inhibition: decreases in Vmax without changes in Km; for Vmax: substrate PNPG 0.25-2.0 mM
# [2] = tested on: advanced glycation end products (AGEs) formation (glycated BSA); assay: In vitro advanced glycation end products; format: biochemical; settings: read-out: IC50 ± S.D. advanced glycation end product inhibitory activity, 37 °C, seven days in the dark, mean ± SD, n = 3, NA = no inhibitory activity
# [3] = target: alpha-amylase from Aspergillus oryzae (Aspergillus oryzae, UniProt P0C1B3); assay: In vitro alpha-amylase inhibition assay; format: biochemical
# [4] = target: alpha-glucosidase enzyme from Saccharomyces cerevisiae recombinant; assay: In vitro alpha-glucosidase inhibition assay; format: biochemical; settings: for IC50: read-out: IC50 ± S.D. alpha-glucosidase, mean ± SD, n = 3
smiles,measurement,setting,value
"C[C@H]1O[C@H](O[C@H]2[C@H](O)[C@@H](O)[C@@H](O[C@H]3[C@H](O)[C@@H](O)C(O)O[C@@H]3CO)O[C@@H]2CO)[C@H](O)[C@@H](O)[C@@H]1N[C@H]1C=C(CO)[C@@H](O)[C@H](O)[C@H]1O (stereo partly drawn) [Acarbose, acarbose, reference compound]",mode of alpha-glucosidase inhibition,[1],non-competitive
same,Km,[1]; inhibitor 200 μM,4.98 mM
same,Vmax,[1]; inhibitor 200 μM,0.045 △OD/min
same,Km,[1]; inhibitor 400 μM,4.96 mM
same,Vmax,[1]; inhibitor 400 μM,0.030 △OD/min
"N=C(N)NN [Aminoguanidine, aminoguanidine, reference compound]",IC50,[2],327 ± 5.95 µM
"COc1cc(CCc2cc(OC)c(O)c(OC)c2)ccc1O [Compound 2, moscatilin]",IC50,[2],168 ± 9.42 µM
same,IC50,[3],257 ± 9.87 µM
same,IC50,[4],173 ± 5.84 µM
"COc1cc2c(c(O)c1OC)-c1ccc(O)cc1CC2 [Compound 3, ephemeranthol A]",IC50,[3],280 ± 9.76 µM
same,IC50,[4],62.5 ± 2.85 µM
"COc1cc(O)cc(CCc2ccc(O)c(OC)c2)c1 [Compound 4, gigantol]",IC50,[3],332 ± 4.23 µM
same,IC50,[4],231 ± 11.3 µM
"COc1cc(O)cc2ccc3cccc(O)c3c12 [Compound 5, moscatin]",fold greater alpha-glucosidase inhibitory potency than acarbose (Ki),[1]; Ki relative to acarbose,approximately 9 fold
same,mode of alpha-glucosidase inhibition,[1],non-competitive
same,Km,[1]; inhibitor 30 μM,1.62 mM
same,Vmax,[1]; inhibitor 30 μM,0.017 △OD/min
same,Km,[1]; inhibitor 60 μM,1.66 mM
same,Vmax,[1]; inhibitor 60 μM,0.011 △OD/min
same,IC50 ± S.D. alpha-amylase,"[3]; mean ± SD, n = 3, NA = no inhibitory activity",did not inhibit alpha-amylase activity
same,fold lower alpha-glucosidase IC50 than acarbose,[4]; IC50 relative to acarbose,approximately 10 fold
same,IC50,[4],32.5 ± 1.04 µM
"COc1cc(O)c2c(c1)CCc1cc(O)ccc1-2 [Compound 6, lusianthridin]",IC50,[3],372.2 ± 2.74 µM
same,IC50,[4],63.89 ± 0.27 µM
"Oc1ccc2c(c1)CCc1cc(O)cc(O)c1-2 [Compound 7, 2,4,7-trihydroxy-9,10-dihydrophenanthrene]",IC50,[2],411 ± 15 µM
same,IC50,[3],617 ± 11 µM
same,IC50,[4],422 ± 7 µM
